Patent US20230192607A1, “TRANSCRIPTIONAL ENHANCED ASSOCIATE DOMAIN (TEAD) TRANSCRIPTION FACTOR INHIBITORS AND USES THEREOF” (Dana-Farber Cancer Institute, Inc., priority 2019, published 2023)
Entries after “also recorded” stand apart in the source; their conditions may differ.

Tests used:
[1] = tested on: EGFR-mutant NSCLC cell lines; experiment: Regrowth after drug washout and count of viable dormant cells; format: cell-based, human
Method: To determine number of dormant cells after treatment, viable cells were manually counted from the Incucyte images. A total of 10-12 wells with 3 images per well was analyzed for each condition.

[2] = tested on: YAP activity in PC-9 YAP reporter cells; experiment: Fluorescent YAP/Hippo pathway reporter assay (Incucyte live-cell imaging); format: cell-based, human; conditions: for YAP activity (reporter) induced by osimertinib/trametinib: compound added to osimertinib/trametinib
Method: YAP activity -induced mCherry expression was quantified using the Incucyte ZOOM live-cell analysis system. The mCherry signal was normalized to well confluency at each time point. For simultaneous detection of YAP activity and apoptosis, the cells were plated as above, and treated in the presence of CellEvent™ Caspase-3/7 Green ReadyProbes™ Reagent (Molecular Probes) as per manufacturer’s instructions. The mCherry signal as well as the green fluorescence signal was quantified every 2 hours using Incucyte ZOOM.

[3] = tested on: EGFR-mutant NSCLC cells; experiment: Caspase-3/7 activity monitoring (apoptosis); format: cell-based, human; conditions: combined with osimertinib/trametinib vs osimertinib/trametinib alone
Method: Cells were plated into 96-well plates at 3000 cells/well in 100 µl of growth medium. The next day, drugs were added onto cells in 50 µl containing CellEvent™ Caspase-3/7 Green ReadyProbes™ Reagent (Molecular Probes) as per manufacturer’s instructions (n=5-6 wells / condition). The wells were subsequently scanned every 2 hours using the Incucyte ZOOM live cell analysis system (Essen Bioscience) typically for a total of 72 hours. The acquired fluorescent signal for activated caspase-3/7 was normalized with well confluency at each timepoint (=normalized apoptosis). Peak apoptosis was determined as the highest normalized caspase-3/7 activity value during the assay.

[4] = tested on: BMF expression; experiment: QPCR analysis of BMF expression; format: cell-based, human; conditions: combined with osimertinib/trametinib, 24 hour treatment
Method: Cells were plated at 15 × 10^4 cells / cm^2, treated the next day, and RNA samples were extracted at specified timepoints using the RNeasy Mini kit (Qiagen). The RNA concentrations were measured with Nanodrop (Thermo Fisher Scientific) and 1 µg of total RNA was used for cDNA synthesis using the QuantiTect Reverse Transcription Kit (Qiagen). The QPCR reactions were set up in 20 µl using Taqman Gene Expression Master Mix (Applied Biosystems, cat. 4369016), Taqman Gene Expression Assays (Applied Biosystems) as per manufacturer’s instructions, and 2 µl of 1:10 diluted cDNA. The following Taqman Gene Expression Assays were used in the study: CTGF (Hs01026927_ml), ANKDR1 (Hs00173317_ml), BMF (Hs00372937 _m1), SNAI1(Hs00195591_m1), SNAI2 (Hs00161904_m1), TWIST1 (Hs00361186_m1), TWIST2 (Hs02379973_s1), ZEB1 (Hs00232783_m1), ZEB2 (Hs00207691_m1), and ACTB (Hs01060665_g1). The reactions were run in StepOne Plus Real-time PCR System (Applied Biosystems) using default reaction settings. The gene expression levels were normalized to ACTB housekeeping gene expression levels in each sample. For the analysis of BMF expression in vivo, RNA was extracted from 25-30 mg snap-frozen tumor samples using RNeasy Mini kit according to the kit protocol. Reverse transcription and gene expression analyses were performed as above.

[5] = tested on: CTGF expression; experiment: QPCR analysis of YAP target gene CTGF expression; format: cell-based, human; conditions: 24 hour treatment; for CTGF expression in cells overexpressing TEAD1 C359S mutant: PC-9 cells transduced with TEAD1 C359S
[6] = tested on: EGFR-mutant NSCLC cell lines; experiment: Cell viability assay (Cell Titer Glo); format: cell-based, human; conditions: several EGFR-mutant NSCLC cell lines
[7] = tested on: PC-9, HCC827 and HCC4006 cells
Method: PC-9, HCC827 and HCC4006 were plated into 6-well plates at 50 000 cells / well, and treated the next day with DMSO, 100 nM osimertinib or with the combination of 100 nM osimertinib and 30 nM trametinib in triplicate. […] After staining, cells were imaged (5 images / well), and stained cells were manually counted from the images.

[8] = tested on: PC-9 cells; experiment: Long-term cell growth assay (well confluency, Incucyte); conditions: continuous treatment with single-agent osimertinib (100 nM)
[9] = biological target: TEAD2 protein (Homo sapiens, UniProt Q15562); experiment: Mass spectrometry analysis of covalent labeling of TEAD2 protein; format: binding; conditions: 20-fold molar excess, 6 hours at 37° C.
Chain of TEAD2 protein (Q15562 whole entry): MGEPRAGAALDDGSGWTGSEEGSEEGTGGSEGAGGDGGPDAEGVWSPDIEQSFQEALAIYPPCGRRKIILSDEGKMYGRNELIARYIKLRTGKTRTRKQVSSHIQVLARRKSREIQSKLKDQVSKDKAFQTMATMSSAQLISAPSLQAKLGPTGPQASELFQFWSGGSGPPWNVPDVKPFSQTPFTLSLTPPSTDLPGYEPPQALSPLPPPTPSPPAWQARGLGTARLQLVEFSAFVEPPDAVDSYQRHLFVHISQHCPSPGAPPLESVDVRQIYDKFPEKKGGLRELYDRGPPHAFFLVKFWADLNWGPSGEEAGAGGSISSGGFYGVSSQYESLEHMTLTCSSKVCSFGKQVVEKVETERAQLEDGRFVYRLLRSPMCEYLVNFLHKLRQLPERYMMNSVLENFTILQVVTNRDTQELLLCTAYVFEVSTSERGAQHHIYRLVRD
Method: TEAD2 protein was incubated with DMSO or a 20-fold molar excess of MYF-01-37 for 6 hours at 37° C. Reactions were then analyzed by LC-MS using a Shimadzu autosampler and LC (Marlborough, MA) coupled to an LTQ ion trap mass spectrometer (ThermoFisher Scientific, San Jose, CA). Protein was injected onto a self packed column (0.5 mm I.D., packed 5 cm POROS 50R2 from Applied Biosystems, Framingham, MA), desalted for 4 minutes with 100% A (A=0.2 M acetic acid in water), eluted with a gradient (0-100% B in 1 minute; A=0.2 M acetic acid in water, B=0.2 M acetic acid in acetonitrile), and introduced to the mass spectrometer by electrospray ionization (spray voltage=4.5 kV). The mass spectrometer acquired full scan MS data (m/z 300-2000). […]
To identify the site of modification, labeled protein was diluted 1:1 with 100 mM ammonium bicarbonate, reduced with 10 mM DTT at 56° C. for 30 minutes, alkylated with 22.5 mM IAA for 30 minutes at room temperature, and then digested with trypsin overnight at 37° C. Tryptic peptides were desalted by C18 (SOLA, ThermoFisher Scientific), dried by vacuum centrifugation, reconstituted in 5% MeCN, 0.1% trifluoroacetic acid, and analyzed by nanoLC-ion mobility MS/MS using a NanoAcquity UPLC system (Waters Corp., Milford, MA) interfaced to a timsTOF Pro mass spectrometer (Bruker, Billerica, MA). […]

[10] = tested on: TEAD; experiment: Competition pulldown with biotinylated MYF-01-37; format: cell-based; conditions: MDA-MB-231 cells pretreated 6 hours with 10, 25 and 50 µM
Method: MDA-MB-231 cells were incubated for 6 hours with 10, 25 and 50 µM MYF-01-37, followed by cell lysis. The lysates were subjected to pulldown with 50 µM biotinylated MYF-01-37 overnight, and the amount of TEAD pulled down was analyzed by western blotting.

[11] = tested on: YAP/TEAD interaction; experiment: YAP/TEAD interaction assay (split Gaussia luciferase); format: cell-based; conditions: HEK 293T cells
Method: 293T cells were plated in 24-well plates and transfected with N-GLuc-YAP and C-GLuc-TEAD using TransIT-293 (Mirus Bio). The pCMV-Red Firefly Luc Vector (Life Technologies) was used as an internal control. Cells were treated with indicated concentrations of compounds or vehicle control (DMSO) in duplicates. Luciferase activity was measured by Dual-Luciferase Assay (Promega, Madison, WI) according to the manufacturer’s manual.

SMILES	regrowth after one week triple combination followed by two weeks osimertinib/trametinib vs three-week continuous triple combination ([1]; PC-9 cells)	YAP activity (reporter) induced by osimertinib/trametinib [2]	apoptosis [3]	BMF expression [4]	CTGF expression in cells overexpressing TEAD1 C359S mutant [5]	cell viability as a single agent [6]	also measured
O=c1[nH]c(-c2ccc(C(F)(F)F)cc2)nc2c1CSCC2 [XAV939]	identical potency	completely blocked	robust increase in apoptosis	significantly increased BMF expression	still able to inhibit CTGF expression	–	number of dormant cells at the time of drug washout ([1]; PC-9 cells, 21-day treatment combined with osimertinib/trametinib vs osimertinib/trametinib alone): dramatic decrease in the number of dormant cells; regrowth of cells after drug washout ([1]; three-week treatment combined with osimertinib/trametinib, then washout): significant reduction in regrowth
O=C(CCl)c1ccccc1Nc1cccc(C(F)(F)F)c1 [TED-347]	–	–	–	–	–	significant toxicity	–
C=CC(=O)Nc1cc(Nc2nccc(-c3cn(C)c4ccccc34)n2)c(OC)cc1N(C)CCN(C)C [osimertinib]	–	–	–	–	–	–	cells positive for SA-β-Gal activity [7]: significantly smaller proportion; proportion of YAP^high cells ([2]; 10-day treatment): 40%; proportion of cells with absent YAP signal ([2]; 10-day treatment): 60%; time to re-colonization of wells [8]: ≤ 8 weeks
C=CC(=O)N1CCC(Nc2cccc(C(F)(F)F)c2C)C1 (centres unmarked) [MYF-01-37]	identical potency	completely suppressed the increased YAP activity	significantly increased apoptosis	robust increase in BMF expression	abrogated	minimal impact on cell viability; also recorded: did not demonstrate single-agent toxicity	dormant cells after treatment ([1]; PC-9 and HCC4006 cells, 10-day treatment in combination with osimertinib/trametinib vs osimertinib/trametinib alone): dramatic decrease in dormant cells; site of covalent modification [9]: targeted cysteine 380; TEAD pull-down by biotinylated MYF-01-37 from whole-cell lysate [10]: loss of direct TEAD pull-down; YAP/TEAD interaction [11]: inhibition of direct YAP/TEAD interaction; CTGF expression ([5]; PC-9 cells): reduction in canonical YAP target gene CTGF expression
